The results in this text go back to patent US20040186098A1 (Amgen Inc., priority 1997, published 2004).

Each structure is given as a SMILES string.

The target of one assay is FKBP12 (Homo sapiens, UniProt P62942). Kind of assay: Ki test procedure: inhibition of peptidyl-prolyl isomerase (rotamase) activity of FKBP12, chymotrypsin-coupled assay. Format: biochemical. To be noted: apparent Ki. From the text: The inhibition of the prolyl peptidyl cis-trans isomerase activity of FKBP may be measured as an indicator of this affinity.
The binding to FBKP12 and inhibition of the peptidyl-prolyl isomerase (rotamase) activity of the compounds used in the inventive methods and pharmaceutical compositions can be evaluated by known methods described in the literature (Harding et al., Nature, 1989, 341:758-760; Holt et al. J. Am. Chem. Soc., 115:9923-9938).
The cis-trans isomerization of an alanine-proline bond in a model substrate, N-succinyl-Ala-Ala-Pro-Phe-p-nitroanilide, is monitored spectrophotometrically in a chymotrypsin-coupled assay, which releases para-nitroanilide from the trans form of the substrate. The inhibition of this reaction caused by the addition of different concentrations of inhibitor is determined, and the data is analyzed as a change in first-order rate constant as a function of inhibitor concentration to yield the apparent Ki values.
In a plastic cuvette are added […] of ice cold assay buffer (25 mM HEPES, pH 7.8, 100 mM NaCl), 10 mL of FKBP (2.5 mM in 10 mM Tris-Cl pH 7.5, 100 mM NaCl, 1 mM dithiothreitol), […] of chymotrypsin (50 mg/ml in 1 mM HCl) and […] of test compound at various concentrations in dimethyl sulfoxide. The reaction is initiated by the addition of 5 mL of substrate (succinyl-Ala-Phe-Pro-Phe-para-nitroanilide, 5 mg/mL in 2.35 mM LiCl in trifluoroethanol).
The absorbance at 390 nm versus time is monitored for 90 seconds using a spectrophotometer and the rate constants are determined from the absorbance versus time data files.

A further assay deals with outer hair cells (OHC). Kind of assay: Intramiddle ear neomycin-induced ototoxicity, compound given into the middle ear, outer hair cell loss. The settings on record: 10 ng in the middle ear. Format: in vivo, guinea pig. Here is the method:
Twenty guinea pigs used in this study were divided into two groups: 10 animals received 10 ng and 10 received 1 ng of the sensorineurotrophic compound.
Sensorineurotrophic compound stock A: A stock solution of sensorineurotrophic compound at 1 mg/10 ml in 100% ethanol was prepared and then diluted and mixed in Intralipid at 10 ng/100 μl.
Sensorineurotrophic compound stock B: A stock solution of sensorineurotrophic compound at 1 mg/100 ml in 100% ethanol was prepared and then diluted and mixed in 20% Intralipid at 1 ng/100 μl.
Animals were anesthetized with an intramuscular injection of a mixture of ketamine (80 mg/kg) and xylazine (4 mg/kg). Through a post-auricular incision, the right bulla was identified. A hole was drilled to open the middle ear cavity (care was taken not to injure the tympanic annulus or ossicles). A piece of gelfoam (˜2 mm^3) soaked with the sensorineurotrophic compound solution was inserted into the round window niche. The remaining sensorineurotrophic compound solution (˜100 μl) then was injected into the middle ear cavity. In the 10 ng dose group, 100 μl of sensorineurotrophic compound stock A was administered; and in the 1 ng dose group, 100 μl of sensorineurotrophic compound stock B was administered to the middle ear cavity. The hole was covered with a piece of clear plastic sheet which was stuck on the skull with a superglue. The incision was closed with clips. The same procedure was performed at the left bulla, but 100 μl of vehicle solution instead of sensorineurotrophic compound solution was administered. The animals were maintained in the prone position until they woke up to ensure filling of the middle ear cavity.
After two days, the animals received a second middle ear administration of sensorineurotrophic compound or vehicle together with neomycin. Solutions were prepared for the two groups of animals as follows:
Solution A: Neomycin was dissolved in sensorineurotrophic compound stock A described above. The final concentration of neomycin was 5 mg and the sensorineurotrophic compound concentration was 10 ng in a 100 μl vehicle solution.
Solution B: Neomycin was dissolved in sensorineurotrophic compound stock B described above. The final concentration of neomycin was 5 mg and the concentration of sensorineurotrophic compound was 1 ng in a 100 μl vehicle solution.
Solution C: Neomycin was dissolved in 20% Intralipid to a final concentration of 5 mg in 100 μl vehicle.
The plastic cover sheet on the bulla window was removed and the middle ear cavity was exposed. The old sensorineurotrophic compound or vehicle was sucked off and the old gelfoam was removed from the round window niche. A piece of gelfoam with fresh stock solution containing sensorineurotrophic compound and neomycin was administered to the round window niche, and the remaining solution (˜100 μl, solution A for the 10 ng dose group and solution B for the 1 ng dose group, respectively) was injected into the middle ear cavity of the right bulla.
Solution C (100 μl) was administered to the left ear for both groups in the same way.
Fourteen days after the second surgery, animals were perfused transcardially with a PBS flush followed by a fixative of 4% paraformaldehyde in 0.1M PBS. Immediately following the perfusion, the temporal bone was removed from the head. The bulla was opened and the cochlea was exposed. The apex was opened and the membrane of the round and oval windows was punched. The fixative solution was gently infused into the perilymphatic space through the apex hole and then allowed to flow out from windows. Then the cochleae were post-fixed in the same fixative solution for at least one day.
To identify and count hair cells in the organ of Corti, a direct immunostaining method was used to label the actin present naturally in the stereocilia bundles of the hair cells. The cochlea was dissected and the perilymphatic space was fully exposed. […]

A further assay relates to Preyer's reflex. Kind of assay: Cisplatin-induced ototoxicity, compound given systemically, Preyer's reflex monitoring. Format: in vivo, guinea pig. To be noted: 30 mg/kg s.c. daily, cisplatin 4 mg/kg i.p. x4; 10 days after the 4th injection; vehicle group more than 80%. As to the method: Twenty male pigmented guinea pigs were divided into two groups (10 in each). One group was treated with Compound XXV while the other with vehicle—2 days prior to the first cisplatin injection. The test compound or vehicle was delivered by daily sub-cutaneous injection. On the day of injection, 100 mg of Compound XXV was dissolved in 1 ml of ethanol, then added to 20% Intralipid solution to a final volume of 3 ml and final Compound XXV concentration of 10 mg/0.3 ml. Each animal was subcutaneously injected with 30 mg/kg of Compound XXV solution Two days after the beginning of test compound injections (d2), cisplatin intraperitoneal injection was given to all animals at 4 mg/kg. After 3 days, a second cisplatin injection was given to all animals (d5). After another 3 days, a third injection (d8) and after 3 more days the fourth and last injection of cisplatin was given (d11). Test compound injections continued daily until day 21 (10 days after the last cisplatin injection).
Preyers' reflex is a rough indication of hearing function in rodents. […] The animals in this experiment were monitored daily for their Preyer's reflex. […]
Determination of hair cell numbers was determined in the same manner as in Example 4.

Where [1] appears, read: rotamase inhibition, Table XLI, Formulas I to XIV.

Sequence of FKBP12 (P62942 whole entry, species assumed): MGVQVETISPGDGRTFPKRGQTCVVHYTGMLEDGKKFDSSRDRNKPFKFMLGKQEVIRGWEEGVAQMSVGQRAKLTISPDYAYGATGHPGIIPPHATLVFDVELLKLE

As to `O=C(C(=O)N1CCCCC1C(=O)SCCc1ccccc1)c1ccccc1` (stereo not shown) [Compound 14], the Ki at FKBP12 (setting [1]) worked out at 313 nM. On the same count and under the same terms, to `O=C(C(=O)N1CCC[C@H]1C(=O)SCCc1ccccc1)C1CCCC1` [Compound 28, 2-Phenyl-1-ethyl (2S)-1-(1-cyclopentyl-1,2-dioxoethyl)-2-pyrrolidinecarbothioate] belongs 108 nM. In the case of `CCC(C)(C)C(=O)C(=O)N1CSC[C@@H]1C(=O)OCCCc1ccccc1` [Compound 80, 3-phenyl-1-propyl(2S)-1-(3,3-dimethyl-1,2-dioxopentyl)-2-(4-thiazolidine)carboxylate], the Ki at FKBP12 (setting [1]) was determined as 215 nM.

Consider `CCC(C)(C)NC(=O)N1CCCC1C(=O)SCCCc1ccc(OC)cc1` (stereo not shown) [Compound 103], for which the Ki on FKBP12 (FKBP12 rotamase inhibition) lay within 51 to 200 nM. In the case of `O=C(SCCCc1cccnc1)C1CCCN1C(=S)NC12CC3CC(CC(C3)C1)C2` (stereo not shown) [Compound 108], the Ki on FKBP12 (FKBP12 rotamase inhibition) lay in the range of 1 to 50 nM. For `O=C(SC(CCc1ccccc1)CCc1ccccc1)C1CCCCN1C(=O)Nc1ccccc1` (stereo not shown) [Compound 113], on FKBP12 (FKBP12 rotamase inhibition), the Ki lay within 1 to 50 nM. Consider `CCC(C)(C)C(=O)C(=O)N1CCC[C@H]1C(=O)SCCC(c1ccccc1)c1ccccc1` [Compound XVI], for which the “difference in the number of OHCs lost, vehicle vs compound (FIG. 8)” value in the assay on outer hair cells (OHC) (5 mg neomycin, group mean) is listed as “over 50%”. Besides, in the assay with outer hair cells (OHC) (neomycin (FIG. 9)), the “loss of hair cells in the second turn (turn 3), in words” value was “completely prevent the loss”. Besides, the “loss of hair cells in the basal turn (turn 4)” value in the assay with outer hair cells (OHC) (neomycin, vehicle almost 100% (FIG. 9)) was “around 30%”. As to `CCC(C)(C)C(=O)C(=O)N1CCCCC1C(=O)SCCC(c1ccccc1)c1ccccc1` (stereo not shown) [Compound XXV], the “animals that lost Preyer's reflex” value with Preyer's reflex is “about 20 % of the animals”.
